Here are results for twelve compounds from US8293753B2, “Substituted 2-carboxamide cycloamino ureas” (Novartis AG, priority 2009, dated 2012).

One may read the pIC50 as the IC50 on a negative log10 scale, so that one unit is a factor of ten.

pIC50: −log10 of the molar value.

Type in all cases: biochemical
In experiment [1] the target is T1, PI3Kα (Homo sapiens, UniProt P42336).
T1 construct: His (C); made in house; host or cells: baculovirus / Tn5 insect cells
Put plainly: PI3K KinaseGlo assay, PI3Kalpha. As to conditions: 1 μM ATP, 10 nM enzyme, 30 mins. (In general: Kinase-Glo reads ATP consumption through a luciferase reaction.)

The target of experiment [2] is T2, PI3Kβ (Homo sapiens, UniProt P42338).
T2 construct: His (C); made in house; host or cells: baculovirus / Tn5 insect cells
Put plainly: PI3K KinaseGlo assay, PI3Kbeta. As to conditions: for pIC50: KinaseGlo, 1 μM ATP, 25 nM enzyme, 30 mins; for PI3Kbeta (selectivity): selectivity factor: PI3Kbeta IC50 divided by PI3Kalpha IC50.

The target of experiment [3] is T3, PI3Kγ (Homo sapiens, UniProt P48736, Q459R).
T3 construct: His (C); made in house; host or cells: Tn5 insect cells; construct obtained from Roger Williams lab (MRC LMB)
As to the kind of experiment: PI3K KinaseGlo assay, PI3Kgamma. As to conditions: for pIC50: KinaseGlo, 1 μM ATP, 150 nM enzyme, 90 mins; for PI3Kgamma (selectivity): selectivity factor: PI3Kgamma IC50 divided by PI3Kalpha IC50. The protocol: PI3K KinaseGlo assay: […] of compound dilutions were dispensed onto black 384-well low volume Non Binding Styrene (NBS) plates (Costar Cat. No. NBS#3676). L-a-phosphatidylinositol (PI), provided as 10 mg/ml solution in methanol, was transferred into a glass tube and dried under nitrogen beam. It was then resuspended in 3% OctylGlucoside (OG) by vortexing and stored at 4° C. The KinaseGlo Luminescent Kinase Assay (Promega, Madison/WI, USA) is a homogeneous HTS method of measuring kinase activity by quantifying the amount of ATP remaining in solution following a kinase reaction.
5 μL of a mix of PI/OG with the PI3K subtype were added (Table 1). Kinase reactions were started by addition of 5 μl of ATP-mix containing in a final volume 10 μL 10 mM TRIS-HCl pH 7.5, 3 mM MgCl2, 50 mM NaCl, 0.05% CHAPS, 1 mM DTT and 1 μM ATP, and occurred at room temperature. Reactions were stopped with 10 μl of KinaseGlo and plates were read 10 mins later in a Synergy2 reader using an integration time of 0.1 seconds per well. […] The standard was used as a reference compound and included in all assay plates in the form of 16 dilution points in duplicate.
The PI3Kα, PI3Kβ and PI3Kδ constructs are fusion of p85α iSH2 domain and the respective p110 isoforms. The p85α fragment and p110 isoform genes were generated by PCR from first strand cDNA generated by RT-PCR from commercial RNA from placenta, testis and brain as described below. The PI3Kγ construct was obtained from Roger Williams lab, MRC Laboratory of Molecular Biology, Cambridge, UK (November, 2003) and is described (Pacold, Michael E.; Suire, Sabine; Perisic, Olga; Lara-Gonzalez, Samuel; Davis, Colin T.; Walker, Edward H.; Hawkins, Phillip T.; Stephens, Len; Eccleston, John F.; Williams, Roger L. Crystal structure and functional analysis of Ras binding to its effector phosphoinositide 3-kinase gamma. Cell (2000), 103(6), 931-943).
Construct obtained from Roger Williams lab, MRC Laboratory of Molecular Biology, Cambridge, UK (November, 2003). Description of the construct in (Pacold, Michael E.; Suire, Sabine; Perisic, Olga; Lara-Gonzalez, Samuel; Davis, Colin T.; Walker, Edward H.; Hawkins, Phillip T.; Stephens, Len; Eccleston, John F.; Williams, Roger L. Crystal structure and functional analysis of Ras binding to its effector phosphoinositide 3-kinase gamma. Cell (2000), 103(6), 931-943). Constructs lacking the N-terminal 144 aa.

For experiment [4], the target named is T4, PI3Kδ (Homo sapiens, UniProt O00329).
T4 construct: p85iSH2(461-568)-GGGGGG-p110δ(2-1044)-His; His (C); made in house; host or cells: baculovirus / Tn5 insect cells
As to the kind of experiment: PI3K KinaseGlo assay, PI3Kdelta. As to conditions: for pIC50: KinaseGlo, 1 μM ATP, 10 nM enzyme, 30 mins; for PI3Kdelta (selectivity): selectivity factor: PI3Kdelta IC50 divided by PI3Kalpha IC50.

T1 sequence (P42336 with tags, fused parts or gaps): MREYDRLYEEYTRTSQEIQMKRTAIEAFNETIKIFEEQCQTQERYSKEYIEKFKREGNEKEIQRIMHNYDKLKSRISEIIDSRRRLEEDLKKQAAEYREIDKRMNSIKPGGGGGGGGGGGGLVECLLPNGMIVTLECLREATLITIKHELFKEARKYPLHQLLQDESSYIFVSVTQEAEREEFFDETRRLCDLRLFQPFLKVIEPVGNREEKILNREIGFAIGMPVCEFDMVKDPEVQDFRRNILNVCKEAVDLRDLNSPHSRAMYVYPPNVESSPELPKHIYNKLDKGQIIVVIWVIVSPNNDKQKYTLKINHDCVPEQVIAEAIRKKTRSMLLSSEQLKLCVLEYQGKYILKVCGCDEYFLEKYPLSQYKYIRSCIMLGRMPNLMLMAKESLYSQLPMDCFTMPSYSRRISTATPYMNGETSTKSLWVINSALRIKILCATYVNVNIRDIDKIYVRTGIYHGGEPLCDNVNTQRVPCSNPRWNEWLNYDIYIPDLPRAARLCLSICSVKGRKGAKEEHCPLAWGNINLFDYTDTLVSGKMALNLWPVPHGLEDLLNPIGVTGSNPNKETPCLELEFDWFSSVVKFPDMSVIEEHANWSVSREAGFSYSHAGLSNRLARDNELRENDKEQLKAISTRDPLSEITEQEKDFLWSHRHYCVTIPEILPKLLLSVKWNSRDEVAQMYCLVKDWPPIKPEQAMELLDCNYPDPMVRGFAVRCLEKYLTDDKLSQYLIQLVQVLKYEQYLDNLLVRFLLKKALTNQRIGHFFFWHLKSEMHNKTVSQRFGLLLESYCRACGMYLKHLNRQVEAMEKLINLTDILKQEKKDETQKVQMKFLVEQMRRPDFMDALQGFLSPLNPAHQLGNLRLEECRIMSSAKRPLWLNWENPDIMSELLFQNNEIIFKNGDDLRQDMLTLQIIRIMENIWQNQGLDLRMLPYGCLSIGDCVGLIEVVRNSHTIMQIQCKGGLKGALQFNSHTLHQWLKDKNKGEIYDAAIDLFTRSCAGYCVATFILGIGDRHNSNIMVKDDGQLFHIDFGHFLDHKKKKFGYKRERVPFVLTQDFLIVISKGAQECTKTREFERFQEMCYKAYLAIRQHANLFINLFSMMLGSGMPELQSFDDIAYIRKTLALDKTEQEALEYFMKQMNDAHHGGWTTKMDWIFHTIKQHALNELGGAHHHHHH
T2 sequence (P42338 with tags, fused parts or gaps): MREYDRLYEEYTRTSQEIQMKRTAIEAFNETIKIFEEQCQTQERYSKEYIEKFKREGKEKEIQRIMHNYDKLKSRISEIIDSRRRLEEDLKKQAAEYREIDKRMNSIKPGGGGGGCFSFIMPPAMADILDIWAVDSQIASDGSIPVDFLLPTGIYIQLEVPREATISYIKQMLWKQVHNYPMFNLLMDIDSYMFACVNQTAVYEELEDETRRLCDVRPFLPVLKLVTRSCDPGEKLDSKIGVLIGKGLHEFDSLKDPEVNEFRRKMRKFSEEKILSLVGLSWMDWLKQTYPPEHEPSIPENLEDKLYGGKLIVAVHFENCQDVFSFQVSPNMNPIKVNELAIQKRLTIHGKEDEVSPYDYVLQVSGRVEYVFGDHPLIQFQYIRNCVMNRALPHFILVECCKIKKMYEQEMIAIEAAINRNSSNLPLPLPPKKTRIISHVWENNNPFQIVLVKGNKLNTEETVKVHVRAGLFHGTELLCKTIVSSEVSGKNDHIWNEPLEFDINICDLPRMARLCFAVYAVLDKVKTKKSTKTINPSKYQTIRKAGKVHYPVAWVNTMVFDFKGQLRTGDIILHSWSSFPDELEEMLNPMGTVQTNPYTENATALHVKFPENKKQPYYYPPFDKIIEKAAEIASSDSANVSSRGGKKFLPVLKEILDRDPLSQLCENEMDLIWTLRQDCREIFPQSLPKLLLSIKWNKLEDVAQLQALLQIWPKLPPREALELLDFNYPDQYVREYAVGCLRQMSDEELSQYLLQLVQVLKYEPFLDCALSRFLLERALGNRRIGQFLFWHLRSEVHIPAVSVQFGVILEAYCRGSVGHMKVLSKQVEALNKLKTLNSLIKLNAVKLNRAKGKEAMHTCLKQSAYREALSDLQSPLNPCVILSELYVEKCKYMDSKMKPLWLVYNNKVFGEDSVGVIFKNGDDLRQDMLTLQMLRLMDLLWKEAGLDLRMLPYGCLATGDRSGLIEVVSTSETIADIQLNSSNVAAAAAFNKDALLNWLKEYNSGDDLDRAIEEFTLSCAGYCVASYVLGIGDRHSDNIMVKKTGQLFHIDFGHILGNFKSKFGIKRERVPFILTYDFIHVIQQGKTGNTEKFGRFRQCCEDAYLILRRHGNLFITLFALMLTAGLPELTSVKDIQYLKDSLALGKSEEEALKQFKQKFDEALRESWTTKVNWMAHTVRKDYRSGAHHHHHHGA
T4 sequence (O00329 with tags, fused parts or gaps): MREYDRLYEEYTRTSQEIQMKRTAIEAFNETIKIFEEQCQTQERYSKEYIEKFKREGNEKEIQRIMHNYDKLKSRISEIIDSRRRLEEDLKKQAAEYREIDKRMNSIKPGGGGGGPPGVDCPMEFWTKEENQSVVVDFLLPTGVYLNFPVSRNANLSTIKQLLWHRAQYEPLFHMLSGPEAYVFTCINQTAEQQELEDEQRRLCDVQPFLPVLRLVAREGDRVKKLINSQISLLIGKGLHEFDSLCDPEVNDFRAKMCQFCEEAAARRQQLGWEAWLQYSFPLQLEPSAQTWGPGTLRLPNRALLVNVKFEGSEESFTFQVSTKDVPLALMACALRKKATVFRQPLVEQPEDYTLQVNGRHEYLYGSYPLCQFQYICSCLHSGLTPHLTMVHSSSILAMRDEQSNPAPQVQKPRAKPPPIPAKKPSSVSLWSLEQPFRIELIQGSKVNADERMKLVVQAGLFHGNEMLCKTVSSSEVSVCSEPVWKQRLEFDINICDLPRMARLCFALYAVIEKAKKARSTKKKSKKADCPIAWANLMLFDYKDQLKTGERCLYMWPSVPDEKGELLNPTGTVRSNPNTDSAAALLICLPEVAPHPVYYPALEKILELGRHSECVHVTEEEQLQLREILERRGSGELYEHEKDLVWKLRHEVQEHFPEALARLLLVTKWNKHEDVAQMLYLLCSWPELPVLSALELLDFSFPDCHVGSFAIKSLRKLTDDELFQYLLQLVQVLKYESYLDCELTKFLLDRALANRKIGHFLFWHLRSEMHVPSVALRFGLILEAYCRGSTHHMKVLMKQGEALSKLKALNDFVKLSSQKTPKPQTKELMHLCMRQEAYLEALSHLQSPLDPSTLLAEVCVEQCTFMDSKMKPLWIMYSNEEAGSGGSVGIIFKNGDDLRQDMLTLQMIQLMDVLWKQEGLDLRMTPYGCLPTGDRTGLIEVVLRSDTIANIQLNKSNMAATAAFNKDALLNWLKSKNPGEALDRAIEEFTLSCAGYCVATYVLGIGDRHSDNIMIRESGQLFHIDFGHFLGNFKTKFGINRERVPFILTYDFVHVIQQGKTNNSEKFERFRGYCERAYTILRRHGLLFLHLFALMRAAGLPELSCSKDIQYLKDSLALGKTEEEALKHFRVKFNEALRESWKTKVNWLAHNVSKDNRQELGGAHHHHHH
T3 sequence (P48736 with tags, fused parts or gaps Q459R): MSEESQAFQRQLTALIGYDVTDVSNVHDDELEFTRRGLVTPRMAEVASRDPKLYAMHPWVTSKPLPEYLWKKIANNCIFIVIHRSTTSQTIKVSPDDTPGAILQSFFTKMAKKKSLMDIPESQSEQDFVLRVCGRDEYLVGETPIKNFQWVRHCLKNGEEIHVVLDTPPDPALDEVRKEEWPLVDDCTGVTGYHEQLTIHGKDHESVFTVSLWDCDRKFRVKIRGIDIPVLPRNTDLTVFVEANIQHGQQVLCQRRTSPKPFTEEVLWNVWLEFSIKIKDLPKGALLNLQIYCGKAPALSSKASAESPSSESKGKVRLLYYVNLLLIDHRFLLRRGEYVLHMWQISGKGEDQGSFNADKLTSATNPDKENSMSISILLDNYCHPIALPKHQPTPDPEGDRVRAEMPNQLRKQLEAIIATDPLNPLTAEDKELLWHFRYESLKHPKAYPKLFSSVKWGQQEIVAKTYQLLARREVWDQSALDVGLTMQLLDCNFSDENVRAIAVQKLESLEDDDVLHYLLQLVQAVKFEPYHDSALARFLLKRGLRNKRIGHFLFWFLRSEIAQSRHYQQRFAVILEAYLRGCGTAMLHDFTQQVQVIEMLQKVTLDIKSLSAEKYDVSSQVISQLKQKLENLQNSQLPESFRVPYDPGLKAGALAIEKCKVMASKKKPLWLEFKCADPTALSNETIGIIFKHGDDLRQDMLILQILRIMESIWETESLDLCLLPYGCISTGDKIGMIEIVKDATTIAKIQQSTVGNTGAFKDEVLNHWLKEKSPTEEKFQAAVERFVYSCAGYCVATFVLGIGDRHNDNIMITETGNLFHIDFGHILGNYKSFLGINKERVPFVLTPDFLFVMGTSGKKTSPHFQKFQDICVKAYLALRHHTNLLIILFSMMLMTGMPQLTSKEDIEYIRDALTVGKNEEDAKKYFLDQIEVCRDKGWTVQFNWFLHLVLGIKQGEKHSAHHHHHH

For the compound `Cc1nc(NC(=O)N2CCC(C)(C)C2C(N)=O)sc1-c1ccnc(C2(C)CC2)c1` (racemic) [Example 3, (rac)-3,3-Dimethyl-pyrrolidine-1,2-dicarboxylic acid 2-amide 1-({4-methyl-5-[2-(1-methyl-cyclopropyl)-pyridin-4-yl]-thiazol-2-yl}-amide)], the pIC50 in experiment [1] was 7.28; in experiment [2] it was less than 5.04; in experiment [3] it was 5.97; in experiment [4], 6.10. Also, the “PI3Kbeta (selectivity)” value in experiment [2] was “(>171)”. Further, the “PI3Kgamma (selectivity)” value in experiment [3] was “(20)”. For the same compound, in experiment [4], the “PI3Kdelta (selectivity)” value is reported as “(15)”.
In turn, `Cc1nc(NC(=O)N2CCC(C)(C)C2C(N)=O)sc1-c1ccnc(C(C)(C)C(F)(F)F)c1` (racemic) [Example 4, (rac)-3,3-Dimethyl-pyrrolidine-1,2-dicarboxylic acid 2-amide 1-({4-methyl-5-[2-(2,2,2-trifluoro-1,1-dimethyl-ethyl)-pyridin-4-yl]-thiazol-2-yl}-amide)] had a pIC50 in experiment [1] of 7.04. For the same compound, in experiment [2], the pIC50 is 5.16 and the “PI3Kbeta (selectivity)” value was “(76)”. For the same compound, in experiment [3], the pIC50 is 5.77 and the “PI3Kgamma (selectivity)” value was “(18)”. Besides, in experiment [4], the pIC50 was 6.36 and the “PI3Kdelta (selectivity)” value was “(4)”.
The compound `Cc1nc(NC(=O)N2CC[C@@H](C)[C@H]2C(N)=O)sc1-c1ccnc(C2(C)CC2)c1` [Example 1, (2S,3R)-3-Methyl-pyrrolidine-1,2-dicarboxylic acid 2-amide 1-({4-methyl-5-[2-(1-methyl-cyclopropyl)-pyridin-4-yl]-thiazol-2-yl}-amide)] had a pIC50 in experiment [1] of 8.15. In addition, in experiment [2], the pIC50 was 5.59 and the “PI3Kbeta (selectivity)” value is “(370)”. In addition, in experiment [3], the pIC50 is 6.76 and the “PI3Kgamma (selectivity)” value was “(25)”. In experiment [4], the pIC50 is 6.77 and the “PI3Kdelta (selectivity)” value is on record as “(24)”.
For `Cc1nc(NC(=O)N2CC[C@@H](C)[C@H]2C(N)=O)sc1-c1ccnc(C(C)(C)C(F)(F)F)c1` [Example 2, (2S,3R)-3-Methyl-pyrrolidine-1,2-dicarboxylic acid 2-amide 1-({4-methyl-5-[2-(2,2,2-trifluoro-1,1-dimethyl-ethyl)-pyridin-4-yl]-thiazol-2-yl}-amide)], the pIC50 in experiment [1] was 7.57; in experiment [2] it was 5.92; in experiment [3] it was 6.98; in experiment [4], 7.23. Besides, the “PI3Kbeta (selectivity)” value in experiment [2] is “(44)”. Moreover, the “PI3Kgamma (selectivity)” value in experiment [3] is reported as “(3)”. Also, the “PI3Kdelta (selectivity)” value in experiment [4] was “(2)”.
With `CC(=O)NC[C@@H]1CCN(C(=O)Nc2nc(C)c(-c3ccnc(C4(C)CC4)c3)s2)[C@@H]1C(N)=O` [Example 5, (2S,3S)-3-(Acetylamino-methyl)pyrrolidine-1,2-dicarboxylic acid 2-amide 1-({4-methyl-5-[2-(1-methyl-cyclopropyl)-pyridin-4-yl]-thiazol-2-yl}-amide)], the pIC50 in experiment [1] was 7.74. Also, in experiment [2], the pIC50 is 5.49 and the “PI3Kbeta (selectivity)” value is listed as “(178)”. Further, in experiment [4], the pIC50 is 6.62 and the “PI3Kdelta (selectivity)” value is on record as “(13)”.
The matching figures for `CC(=O)NC[C@@H]1CCN(C(=O)Nc2nc(C)c(-c3ccnc(C(C)(C)C(F)(F)F)c3)s2)[C@@H]1C(N)=O` [Example 6, (2S,3S)-3-(Acetylamino-methyl)-pyrrolidine-1,2-dicarboxylic acid 2-amide 1-({4-methyl-5-[2-(2,2,2-trifluoro-1,1-dimethyl-ethyl)-pyridin-4-yl]-thiazol-2-yl}-amide)]: 7.89, 6.00, “(76)”, 6.16 and “(52)”.
The matching figures for `Cc1nc(NC(=O)N2CC[C@@H](CN3CCOCC3)[C@H]2C(N)=O)sc1-c1ccnc(C2(C)CC2)c1` [Example 7, (2S,3S)-3-Morpholin-4-ylmethyl-pyrrolidine-1,2-dicarboxylic acid 2-amide 1-({4-methyl-5-[2-(1-methyl-cyclopropyl)-pyridin-4-yl]-thiazol-2-yl}-amide)]: 7.42, 5.29, “(136)”, 6.72 and “(5)”.
For `Cc1nc(NC(=O)N2CC[C@@H](CN3CCOCC3)[C@H]2C(N)=O)sc1-c1ccnc(C(C)(C)C(F)(F)F)c1` [Example 8, (2S,3S)-3-Morpholin-4-ylmethyl-pyrrolidine-1,2-dicarboxylic acid 2-amide 1-({4-methyl-5-[2-(2,2,2-trifluoro-1,1-dimethyl-ethyl)-pyridin-4-yl]-thiazol-2-yl}-amide)] the same measures were 8.22, 5.64, “(380)”, 7.31 and “(8)”.
Regarding `Cc1nc(NC(=O)N2CC[C@@H](C)[C@H]2C(N)=O)sc1-c1ccnc(C(C)(C)F)n1` [Example 9, (2S,3R)-3-Methyl-pyrrolidine-1,2-dicarboxylic acid 2-amide 1-({5-[2-(1-fluoro-1-methyl-ethyl)-pyrimidin-4-yl]-4-methyl-thiazol-2-yl}-amide)], the pIC50 in experiment [1] was 8.00; in experiment [2], less than 5.04; in experiment [3], 6.70; in experiment [4], 6.23. Also, the “PI3Kbeta (selectivity)” value in experiment [2] is given as “(910)”. Besides, the “PI3Kgamma (selectivity)” value in experiment [3] is “(20)”. Further, the “PI3Kdelta (selectivity)” value in experiment [4] is listed as “(58)”.
Consider `COC[C@@H]1CCN(C(=O)Nc2nc(C)c(-c3ccnc(C(C)(C)C(F)(F)F)c3)s2)[C@@H]1C(N)=O` [Example 14, (2S,3R)-3-Methoxymethyl-pyrrolidine-1,2-dicarboxylic acid 2-amide 1-({4-methyl-5-[2-(2,2,2-trifluoro-1,1-dimethyl-ethyl)-pyridin-4-yl]-thiazol-2-yl}-amide)], for which the pIC50 in experiment [1] is 7.92; in experiment [2], 5.83; in experiment [4], 6.96. The “PI3Kbeta (selectivity)” value in experiment [2] was “(122)”. In experiment [4], the “PI3Kdelta (selectivity)” value is “(9)”.
For `Cc1nc(NC(=O)N2CC[C@@H](CN(C)C)[C@H]2C(N)=O)sc1-c1ccnc(C(C)(C)C(F)(F)F)c1` [Example 15, (2S,3S)-3-Dimethylaminomethyl-pyrrolidine-1,2-dicarboxylic acid 2-amide 1-({4-methyl-5-[2-(2,2,2-trifluoro-1,1-dimethyl-ethyl)-pyridin-4-yl]-thiazol-2-yl}-amide)] the same measures were 7.77, 5.49, 7.03, “(192)” and “(5)”.
With `Cc1nc(NC(=O)N2CC[C@@H](C)[C@H]2C(N)=O)sc1-c1ccnc(C(C)(C)C)c1` [Example 16, (2S,3R)-3-Methyl-pyrrolidine-1,2-dicarboxylic acid 2-amide 1-{[5-(2-tert-butyl-pyridin-4-yl)-4-methyl-thiazol-2-yl]-amide}], the figures for the pIC50 in experiment [1], in experiment [2] and in experiment [4] were 8.05, 5.66 and 6.95, respectively. Further, in experiment [2], the “PI3Kbeta (selectivity)” value is on record as “(241)”. Moreover, the “PI3Kdelta (selectivity)” value in experiment [4] was “(13)”.
